Test results: US5023239A, “Sialosyl cholesterol, process for producing the same, and neuropathy remedy comprising the same” (MECT Corporation, priority 1986, dated 1991)

Key:
[1] = test system: Neuroblastoma Cell, Neuro 2a Strain; test: Effect on proliferation / neurite propagation of neuroblastoma cell, Neuro 2a strain; assay type: cell-based, mouse; settings: for activity (in words): 24 hours cultivation; for minimal effective concentration: 48 hours after addition
Description: Experiments for confirming the activity of the present compound for promoting propagation of neurites will be explained below.
Effect On Proliferation of Neuroblastoma Cell, Neuro 2a Strain
Neuro 2a was floated on culture medium consisting of 90% of Dulbecco's Modified Eagle's Midium, and 10% of fetal calf serum (FCS), and containing 100 units/ml of penicillin G and 100 micro g/ml of streptomycin sulfate, and then cultivated at 37° C. in a carbon dioxide incubator containing air into which 5% of carbon dioxide was incorporated. The vessel as used was a polystyrene tray having a diameter of 60 mm. 1 to 2×10^4 of the neuroblastoma cells were implanted in each tray and cultivated for 48 hours. The FCS-containing culture was removed from the resultant cell culture. […] When 24 and 48 hours had passed after the addition of these medicines, the number of the living cells increased in the culture, the number of the neurites increased, and the length of the neurites were measured. The experiment was conducted on three trays with respect to each concentration. The resultant data were expressed by average value+standard error (S.E).

ddy male mice = test: Acute toxicity test, intravenous injection; assay type: in vivo, mouse; settings: ddy male mice of 45 weeks age
Description: Acute toxicity test was conducted by intravenously injecting the compounds into ddy male mice of 45 weeks age.

Gal (beta 1-3) GalNac (beta 1-4 ) <NAcNeu-(alpha2-3)>Gal (beta 1-4) Glc (beta 1-1)-Ceramide [GM1]
activity (in words) [1]: do not provide any activity
Length of neurite ± S.E. ([1]; 24 hrs, 10 ng/ml): 94.9 ± 6.64 μm/cell
Number of neurite propagated cells ([1]; 24 hrs, 10 ng/ml): 145
Number of neurites ± S.E. ([1]; 24 hrs, 10 ng/ml): 1.4 ± 0.05 number/cell
Rate of neurite propagation (%) ([1]; 24 hrs, 10 ng/ml): 43.4%
Total number of cells ([1]; 24 hrs, 10 ng/ml): 334
Length of neurite ± S.E. ([1]; 24 hrs, 100 ng/ml): 101.1 ± 5.09 μm/cell
Number of neurite propagated cells ([1]; 24 hrs, 100 ng/ml): 142
Number of neurites ± S.E. ([1]; 24 hrs, 100 ng/ml): 1.4 ± 0.06 number/cell
Rate of neurite propagation (%) ([1]; 24 hrs, 100 ng/ml): 47.8%
Total number of cells ([1]; 24 hrs, 100 ng/ml): 297
Length of neurite ± S.E. ([1]; 24 hrs, 1 μg/ml): 109.7 ± 6.44 μm/cell
Number of neurite propagated cells ([1]; 24 hrs, 1 μg/ml): 140
Number of neurites ± S.E. ([1]; 24 hrs, 1 μg/ml): 1.4 ± 0.06 number/cell
Rate of neurite propagation (%) ([1]; 24 hrs, 1 μg/ml): 42.2%
Total number of cells ([1]; 24 hrs, 1 μg/ml): 332
Length of neurite ± S.E. ([1]; 24 hrs, 10 μg/ml): 89.3 ± 4.77 μm/cell
Number of neurite propagated cells ([1]; 24 hrs, 10 μg/ml): 149
Number of neurites ± S.E. ([1]; 24 hrs, 10 μg/ml): 1.4 ± 0.05 number/cell
Rate of neurite propagation (%) ([1]; 24 hrs, 10 μg/ml): 45.8%
Total number of cells ([1]; 24 hrs, 10 μg/ml): 325
Length of neurite ± S.E. ([1]; 24 hrs, 100 μg/ml): 90.5 ± 3.88 μm/cell
Number of neurite propagated cells ([1]; 24 hrs, 100 μg/ml): 172
Number of neurites ± S.E. ([1]; 24 hrs, 100 μg/ml): 1.8 ± 0.06 number/cell
Rate of neurite propagation (%) ([1]; 24 hrs, 100 μg/ml): 55.5%
Total number of cells ([1]; 24 hrs, 100 μg/ml): 310
minimal effective concentration [1]: 10 micro g/ml
Length of neurite ± S.E. ([1]; 48 hrs, 10 ng/ml): 93.7 ± 5.07 μm/cell
Number of neurite propagated cells ([1]; 48 hrs, 10 ng/ml): 194
Number of neurites ± S.E. ([1]; 48 hrs, 10 ng/ml): 1.4 ± 0.05 number/cell
Rate of neurite propagation (%) ([1]; 48 hrs, 10 ng/ml): 58.3%
Total number of cells ([1]; 48 hrs, 10 ng/ml): 333
Length of neurite ± S.E. ([1]; 48 hrs, 100 ng/ml): 108.8 ± 5.97 μm/cell
Number of neurite propagated cells ([1]; 48 hrs, 100 ng/ml): 156
Number of neurites ± S.E. ([1]; 48 hrs, 100 ng/ml): 1.4 ± 0.06 number/cell
Rate of neurite propagation (%) ([1]; 48 hrs, 100 ng/ml): 44.7%
Total number of cells ([1]; 48 hrs, 100 ng/ml): 349
Length of neurite ± S.E. ([1]; 48 hrs, 1 μg/ml): 109.2 ± 6.09 μm/cell
Number of neurite propagated cells ([1]; 48 hrs, 1 μg/ml): 211
Number of neurites ± S.E. ([1]; 48 hrs, 1 μg/ml): 1.3 ± 0.04 number/cell
Rate of neurite propagation (%) ([1]; 48 hrs, 1 μg/ml): 59.9%
Total number of cells ([1]; 48 hrs, 1 μg/ml): 352
Length of neurite ± S.E. ([1]; 48 hrs, 10 μg/ml): 113.8 ± 5.49 μm/cell
Number of neurite propagated cells ([1]; 48 hrs, 10 μg/ml): 205
Number of neurites ± S.E. ([1]; 48 hrs, 10 μg/ml): 1.3 ± 0.04 number/cell
Rate of neurite propagation (%) ([1]; 48 hrs, 10 μg/ml): 62.1%
Total number of cells ([1]; 48 hrs, 10 μg/ml): 330
Length of neurite ± S.E. ([1]; 48 hrs, 100 μg/ml): 98.9 ± 5.22 μm/cell
Number of neurite propagated cells ([1]; 48 hrs, 100 μg/ml): 193
Number of neurites ± S.E. ([1]; 48 hrs, 100 μg/ml): 1.5 number/cell
Rate of neurite propagation (%) ([1]; 48 hrs, 100 μg/ml): 60.9%
Total number of cells ([1]; 48 hrs, 100 μg/ml): 317

CC(=O)NC1C(O)CC(OC2CCC3(C)C(=CCC4C3CCC3(C)C(C(C)CCCC(C)C)CCC43)C2)(C(=O)O)OC1C(O)C(O)CO [Compound (4), sodium 5-acetoamide-2-O-(5-cholesten-3-yl)-3,5-dideoxy-alpha-D-glycero-D-galacto-2-nonulopyranosonate]
LD50 (ddy male mice): 93 mg/kg
activity (in words) ([1]; 10 ng/ml): indicated activity
Length of neurite ± S.E. ([1]; 24 hrs, 10 ng/ml): 92.4 ± 5.31 μm/cell
Number of neurite propagated cells ([1]; 24 hrs, 10 ng/ml): 131
Number of neurites ± S.E. ([1]; 24 hrs, 10 ng/ml): 1.2 ± 0.04 number/cell
Rate of neurite propagation (%) ([1]; 24 hrs, 10 ng/ml): 31.5%
Total number of cells ([1]; 24 hrs, 10 ng/ml): 416
Length of neurite ± S.E. ([1]; 24 hrs, 100 ng/ml): 96.7 ± 4.12 μm/cell
Number of neurite propagated cells ([1]; 24 hrs, 100 ng/ml): 177
Number of neurites ± S.E. ([1]; 24 hrs, 100 ng/ml): 1.2 ± 0.03 number/cell
Rate of neurite propagation (%) ([1]; 24 hrs, 100 ng/ml): 41.5%
Total number of cells ([1]; 24 hrs, 100 ng/ml): 427
Length of neurite ± S.E. ([1]; 24 hrs, 1 μg/ml): 130.4 ± 6.12 μm/cell
Number of neurite propagated cells ([1]; 24 hrs, 1 μg/ml): 190
Number of neurites ± S.E. ([1]; 24 hrs, 1 μg/ml): 1.2 ± 0.03 number/cell
Rate of neurite propagation (%) ([1]; 24 hrs, 1 μg/ml): 50.9%
Total number of cells ([1]; 24 hrs, 1 μg/ml): 373
minimal effective concentration [1]: 10 ng/mL
Length of neurite ± S.E. ([1]; 48 hrs, 10 ng/ml): 121.9 ± 5.18 μm/cell
Number of neurite propagated cells ([1]; 48 hrs, 10 ng/ml): 219
Number of neurites ± S.E. ([1]; 48 hrs, 10 ng/ml): 1.2 ± 0.03 number/cell
Rate of neurite propagation (%) ([1]; 48 hrs, 10 ng/ml): 46.9%
Total number of cells ([1]; 48 hrs, 10 ng/ml): 467
Length of neurite ± S.E. ([1]; 48 hrs, 100 ng/ml): 126.0 ± 6.10 μm/cell
Number of neurite propagated cells ([1]; 48 hrs, 100 ng/ml): 193
Number of neurites ± S.E. ([1]; 48 hrs, 100 ng/ml): 1.2 ± 0.04 number/cell
Rate of neurite propagation (%) ([1]; 48 hrs, 100 ng/ml): 47.8%
Total number of cells ([1]; 48 hrs, 100 ng/ml): 404
Length of neurite ± S.E. ([1]; 48 hrs, 1 μg/ml): 156.3 ± 8.32 μm/cell
Number of neurite propagated cells ([1]; 48 hrs, 1 μg/ml): 182
Number of neurites ± S.E. ([1]; 48 hrs, 1 μg/ml): 1.2 ± 0.04 number/cell
Rate of neurite propagation (%) ([1]; 48 hrs, 1 μg/ml): 49.3%
Total number of cells ([1]; 48 hrs, 1 μg/ml): 369
growth / propagation of neurites (in words) ([1]; Neuro 2a culture): strong activity for the propagation of the neurites
activity relative to GMl (times as high) ([1]; vs GMl, from minimal effective concentrations at 48 hours, molecular weights considered): 420 times
activity relative to GQlb (times as high) ([1]; vs GQlb, from minimal effective concentrations at 48 hours, molecular weights considered): 270 times
